{"source": "paper PMC4891694", "about": "“Insights into the role of sulfated glycans in cancer cell adhesion and migration through use of branched peptide probe” (Scientific Reports, 2016)", "key": {"[1]": {"tested_on": "cancer cell lines and human cancer surgical samples", "parameters": "method as in 2 sources, one per row (each row's own in cited_ref): ref 1-6 = [1]; PMID 17766836; doi:10.1158/1535-7163.MCT-07-0164; Falciani C. et al. Synthesis and biological activity of stable branched neurotensin peptides for tumor targeting . Mol. Cancer Ther. 6 , 2441 − 2448 ( 2007 ). 17766836 10.1158/1535-7163.MCT-07-0164 || [2]; PMID 20222099; doi:10.1002/cmdc.200900527; Falciani C. et al. Design and in vitro evaluation of branched peptide conjugates: turning nonspecific cytotoxic drugs into tumor-selective agents . ChemMedChem. 5 , 567 − 574 ( 2010 ). 20222099 10.100 || [3]; PMID 20578987; doi:10.2174/156800910793605875; Falciani C. et al. Modular branched neurotensin peptides for tumor target tracing and receptor-mediated therapy: a proof-of-concept . Curr. Cancer Drug Targets. 10 , 695 − 704 ( 2010 ). 20578987 10.21 || [4]; PMID 21370475; doi:10.1002/cmdc.201000463; Falciani C. et al. Target-selective drug delivery through liposomes labeled with oligobranched neurotensin peptides . ChemMedChem. 6 , 678 − 685 ( 2011 ). 21370475 10.1002/cmdc.201000463 || [5]; PMID 25984525; doi:10.1155/2015/173507; Brunetti J. et al. Neurotensin branched Peptide as a tumor-targeting agent for human bladder cancer . Biomed Res Int. 2015 , 173507 , doi: 10.1155/2015/173507 ( 2015 ). 25984525 PMC4423026 ||| ref 7 = [7]; PMID 23713525; doi:10.1021/jm400329p; Falciani C. et al. Cancer selectivity of tetrabranched neurotensin peptides is generated by simultaneous binding to sulfated glycosaminoglycans and protein receptors . J Med Chem. 56 , 5009 – 18 ( 201)", "conditions": "compared with NT4; cited from earlier work"}, "[2]": {"tested_on": "NT4 binding to PgsA-745 cells", "assay": "Flow cytometry, inhibition of NT4 binding to PgsA-745 cells by heparin", "assay_type": "cell-based, Chinese hamster", "conditions": "1 μM biotinylated NT4, 100 μg/ml heparin", "procedure": "PANC-1 human pancreas adenocarcinoma, CHO-K1 Chinese hamster ovary cell and PgsA-745 Chinese hamster ovary cell mutant deficient in xylosyltransferase (UDP-D-xylose: serine-1,3-D-xylosyltransferase) were grown in DMEM Medium (for PANC-1 and CHO-K1) and F12 K Medium supplemented with 10% fetal bovine serum, 200 μg/ml glutamine, 100 μg/ml streptomycin and 60 μg/ml penicillin. Cell lines were purchased from ATCC (The Global Bioresource Center).\nAll experiments were performed using 1 × 10^5 PANC-1, CHO-K1 or PgsA-745 cells in 96-well U-bottom plates. […] Cells were finally incubated with 1 μg/ml Streptavidin-FITC. All dilutions were performed in PBS, containing 5 mM EDTA and 0.5% BSA.\n10000 events were analyzed in a BD FACS Calibur (Becton Dickinson, NJ USA). Results were analyzed by FCS Express 4 Plus software."}, "[3]": {"tested_on": "NT4 binding to membrane receptors on PANC-1 cells", "assay": "Flow cytometry, inhibition of NT4 binding to PANC-1 cells by GAGs", "assay_type": "cell-based, human", "conditions": "1 μM biotinylated NT4, 100 μg/ml GAGs, PBS with 5 mM EDTA and 0.5% BSA, Streptavidin-FITC"}, "[4]": {"tested_on": "NT4 binding to endocytic receptors", "parameters": "method as in PMID 23713525", "conditions": "cited from earlier work"}, "breast cancer in mice": {"tested_on": "breast cancer in mice", "conditions": "orthotopic breast cancer, versus unconjugated paclitaxel; cited from earlier work"}}}
{"molecule": "native neurotensin: monomeric native neurotensin", "values": [{"measurement": "high cancer selectivity", "setting": "[1]", "result": "not shared by monomeric native neurotensin"}]}
{"molecule": "heparin", "values": [{"measurement": "inhibition of NT4 binding to PgsA-745 cells", "setting": "[2]", "result": "still completely inhibited by heparin"}, {"measurement": "inhibition of NT4 binding (in words)", "setting": "[3]", "result": "complete inhibition"}, {"measurement": "inhibition of NT4 binding to endocytic receptors", "setting": "[4]", "result": "completely inhibited by heparin"}]}
{"molecule": "hyaluronic acid", "values": [{"measurement": "inhibition of NT4 binding (in words)", "setting": "[3]", "result": "neither binding to NT4 or inhibition of NT4 binding to cancer cell membranes was detected"}]}
{"molecule": "CC(=O)O[C@H]1C(=O)[C@@]2(C)[C@H]([C@H](OC(=O)c3ccccc3)[C@]3(O)C[C@H](OC(=O)[C@H](O)[C@@H](NC(=O)c4ccccc4)c4ccccc4)C(C)=C1C3(C)C)[C@]1(OC(C)=O)CO[C@@H]1C[C@@H]2O", "note": "[unconjugated paclitaxel, paclitaxel]", "values": [{"measurement": "tumor regression", "setting": "breast cancer in mice", "result": "not achieved with unconjugated paclitaxel"}]}
